Test results from patent US20100286056A1, “COMPOSITIONS FOR REDUCING OXIDATIVE STRESS AND USES THEREOF” (priority 2007, published 2010).

Assays:
human dermal fibroblasts = experiment: UVA-induced intracellular amplification of ROS (dihydrorhodamine 123, flow cytometry); format: cell-based
Procedure: The modulating effect of the tripeptides […]) and Thyrotropin Releasing Hormones (TRH, Protirelin, Thyoliberin, […]) was examined on human dermal fibroblasts that were seeded into 3.5 cm^2 tissue culture dishes in a density of 150,000 per dish in […] medium. Two days after seeding the cells, the medium supplemented with 10% foetal calf serum, 1% L-glutamine and 1% penicillin/streptomycin was exchanged with serum-free RPMI medium and pre-incubated for 24 hours with KPV, […] Subsequently, the cells were exposed to a physiological dose of UVA radiation (10 J/cm^2). Immediately after radiation, the cells were incubated with 5 μM dihydrorhodamine 123 plus 5 mM glucose in phosphate buffer (PBS) for 30 minutes. Subsequently, the cells were trypsinized, resuspended in PBS with 5 mM glucose and analyzed by means of flow cytometry (FACS, FACSCalibur with 488 nm argon laser). The above dihydrorhodamine probe is oxidized in the presence of intracellular ROS into green fluorescent […] and, thus, can be measured fluorometrically. A total of 10×10^3 cells per probe were analyzed and evaluated using CELL-QUEST software. The median of the FL-1 channel was used as parameter for the intracellular ROS amount, since it represents the maximum number of cells with the highest fluorescence. […]

B16.F1 melanoma cells = experiment: Extracellular melanin accumulation (optical density 405 nm); format: cell-based, mouse; details: peptides at 10^-6, 10^-8 and 10^-10 M; NDP-α-MSH 10^-8 M; 72 hrs (FIG. 3)
From the text: It is also preferred that the compounds of the invention have no or merely a negligible melanotropic effect. “Melanotropic effect” means that the compound induces the extracellular melanin accumulation in a cell assay in accordance with the method described in the appended example 2 and/or in accordance with the method described in Siegrist and Eberle (Anal. Biochem. 1986; 159; 191-197), title “In situ melanin assay for MSH using mouse B16 melanoma cells in culture”. “No or negligible” means that the mean melanin accumulation which is induced by the compounds of the invention exceeds the mean melanin accumulation which is induced by at least one of the two compounds as exemplified in Example 2 by not more than about 40%, 30%, 20%, 15%, 10%, 5%, 2.5%, 2% or 1%, preferably under conditions which equate to or are identical with those set out in Example 2. The skilled person is able to justify which assay conditions/assays equate with the assay/conditions exemplified in the appended examples. The melanin accumulation evaluated in Example 2 is depicted in FIG. 3. The effect of the compounds of the invention on extracellular melanin accumulation is thus determinable by the methods disclosed herein. […]

Molecule | UVA-induced intracellular amplification of ROS (oxidative stress) (human dermal fibroblasts; 10^-8 M peptide, 24 h pre-incubation, UVA 10 J/cm^2, significant, p<0.001 (FIG. 1)) | effect on UVA-induced intracellular amplification of ROS compared to vitamin C (ascorbate) (human dermal fibroblasts; peptide 10^-8M vs vitamin C at 10^-2M as printed (FIG. 2)) | melanotropic effect (extracellular melanin accumulation) (B16.F1 melanoma cells)
NC(=O)[C@@H]1CCCN1C(=O)[C@H](Cc1c[nH]cn1)NC(=O)[C@@H]1CCC(=O)N1 [TRH, L-Pyroglutamyl-L-histidyl-L-prolinamid] | suppressed | comparable with that of vitamin C | 
NDP-α-MSH |  |  | p<0.001 vs. control
